According to patent publication US10239882B2, “Substituted 5-methyl-[1,2,4]triazolo[1,5-a]pyrimidin-2-amine compounds as PDE2 inhibitors” (DART NEUROSCIENCE (CAYMAN) LTD., priority 2014, dated 2019):

What follows are molecules tested against FLAG-tagged PDE2A1 (amino acids 2-941) (Homo sapiens (Human), UniProt O00408) (assay: IMAP TR-FRET PDE2A enzymatic assay). Conditions: 200 nM FAM-cAMP substrate, 11-point half-log dose-response.
Type: biochemical
Excerpt: An IMAP TR-FRET-based phosphodiesterase assay was developed using the PDE2A isoform. IMAP technology is based on high-affinity binding of phosphate by immobilized metal (MIII) coordination complexes on nanoparticles. The IMAP “binding reagent” recognizes phosphate groups on AMP or GMP generated from cAMP or cGMP in a PDE reaction. Cyclic nucleotides that carry a phosphodiester bond and not a free phosphate are not recognized by the binding reagent. The time resolved fluorescence resonance energy transfer (TR-FRET) is afforded by a Terbium (Tb)-Donor pre-bound to the nanoparticles. FRET occurs when the fluorescent-labeled AMP or GMP product of a PDE reaction binds and comes into close proximity to the Tb-Donor complex. Due to the long lifetime of Tb fluorescence, detection can be run in time-resolved mode to reduce or eliminate interference from auto-fluorescent compounds.
The IMAP TR-FRET PDE2A assay was performed in 1536-well white plates. A total of 250 pg per well of FLAG-tagged PDE2A1 (amino acids 2-941) was dispensed in 2.5 μL IMAP assay buffer consisting of 10 mM Tris pH 7.2, 10 mM MgCl2, 1 mM DTT, and 0.1% fatty acid free BSA. 30 nL of compound was then added from 1 mM stocks in DMSO using a Kalypsys Pintool. Plates were incubated for 5 min at room temperature before dispensing 1.5 μL of 533 nM FAM-cAMP substrate for a final concentration of 200 nM. Following a brief centrifugation, plates were incubated for 30 min at room temperature. The assay was terminated by adding 5 μL IMAP binding reagent Tb complex to each well which was prepared according to manufacturer's recommendations (Molecular Devices). Plates were incubated an additional 90 minutes at room temperature and read on a Viewlux plate reader. All compounds were solvated at a concentration of 10 mM in DMSO and tested in 11-point half-log dose-response. Curve fitting and IC50 values were determined using a standard four parameter fit.

Chain of FLAG-tagged PDE2A1 (amino acids 2-941) (O00408 2-941): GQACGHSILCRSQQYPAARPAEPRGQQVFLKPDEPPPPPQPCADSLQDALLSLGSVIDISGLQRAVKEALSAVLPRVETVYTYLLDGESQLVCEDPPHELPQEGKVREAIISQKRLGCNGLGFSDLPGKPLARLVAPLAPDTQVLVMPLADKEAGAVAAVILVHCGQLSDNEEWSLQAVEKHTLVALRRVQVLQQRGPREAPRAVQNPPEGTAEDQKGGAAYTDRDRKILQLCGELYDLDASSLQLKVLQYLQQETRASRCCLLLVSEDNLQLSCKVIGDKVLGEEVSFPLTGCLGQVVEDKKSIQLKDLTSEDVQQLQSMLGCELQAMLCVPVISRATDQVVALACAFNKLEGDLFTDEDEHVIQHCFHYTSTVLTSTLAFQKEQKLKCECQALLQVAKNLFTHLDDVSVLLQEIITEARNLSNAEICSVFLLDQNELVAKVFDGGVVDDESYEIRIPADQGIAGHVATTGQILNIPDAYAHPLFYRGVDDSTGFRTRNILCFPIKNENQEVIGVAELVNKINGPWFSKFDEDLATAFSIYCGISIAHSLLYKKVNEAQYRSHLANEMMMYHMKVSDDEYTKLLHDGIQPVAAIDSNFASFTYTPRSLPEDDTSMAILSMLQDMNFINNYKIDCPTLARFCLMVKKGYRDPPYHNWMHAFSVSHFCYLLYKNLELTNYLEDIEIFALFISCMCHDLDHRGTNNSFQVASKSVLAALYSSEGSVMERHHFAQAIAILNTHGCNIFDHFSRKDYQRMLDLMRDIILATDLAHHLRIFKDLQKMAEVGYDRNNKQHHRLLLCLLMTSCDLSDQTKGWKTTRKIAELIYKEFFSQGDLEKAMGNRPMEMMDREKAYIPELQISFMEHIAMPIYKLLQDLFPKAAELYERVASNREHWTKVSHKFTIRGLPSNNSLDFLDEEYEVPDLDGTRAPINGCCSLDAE

SMILES	PDE2 (PIC50)
Cc1cc(C2CCOCC2)n2nc(NCc3cccc(Br)c3F)nc2n1 [Example 83, N-[(3-Bromo-2-fluorophenyl)methyl]-5-methyl-7-(oxan-4-yl)-[1,2,4]triazolo[1,5-a]pyrimidin-2-amine]	>7
Cc1cc(C2CCOCC2)n2nc(NCc3ccc(F)c(Cl)c3F)nc2n1 [Example 78, N-[(3-Chloro-2,4-difluorophenyl)methyl]-5-methyl-7-(oxan-4-yl)-[1,2,4]triazolo[1,5-a]pyrimidin-2-amine]	>7
Cc1cc(C2CCOCC2)n2nc(NCc3ccc4c(c3)CCO4)nc2n1 [Example 42, N-(2,3-Dihydro-1-benzofuran-5-ylmethyl)-5-methyl-7-(oxan-4-yl)-[1,2,4]triazolo[1,5-a]pyrimidin-2-amine]	>7
Cc1cc(C2CCOCC2)n2nc(NCc3cc(C(F)(F)F)nn3C)nc2n1 [Example 85, 5-Methyl-N-{[1-methyl-3-(trifluoromethyl)-1H-pyrazol-5-yl]methyl}-7-(oxan-4-yl)-[1,2,4]triazolo[1,5-a]pyrimidin-2-amine]	>7
Cc1cc(C2CCOCC2)n2nc(NCc3cccc(Br)c3)nc2n1 [Example 39, N-[(3-Bromophenyl)methyl]-5-methyl-7-(oxan-4-yl)-[1,2,4]triazolo[1,5-a]pyrimidin-2-amine]	>7
COc1ccc(CNc2nc3nc(C)cc(C4CCN(C(C)=O)CC4)n3n2)cc1C(F)F [Example 19, 1-{4-[2-({[3-(Difluoromethyl)-4-methoxyphenyl]methyl}amino)-5-methyl-[1,2,4]triazolo[1,5-a]pyrimidin-7-yl]piperidin-1-yl}ethan-1-one]	>7
COc1ccc(CNc2nc3nc(C)cc(C4(F)CCOCC4)n3n2)cc1 [Example 55, 7-(4-Fluorooxan-4-yl)-N-[(4-methoxyphenyl)methyl]-5-methyl-[1,2,4]triazolo[1,5-a]pyrimidin-2-amine]	>7
Cc1cc(C2CCOCC2)n2nc(NCc3cc(-c4ccccc4)nn3C)nc2n1 [Example 82, 5-Methyl-N-[(1-methyl-3-phenyl-1H-pyrazol-5-yl)methyl]-7-(oxan-4-yl)-[1,2,4]triazolo[1,5-a]pyrimidin-2-amine]	>7
Cc1cc(C2CCOC2)n2nc(NCc3cn(-c4ccccc4)nc3C)nc2n1 (stereo not drawn) [Example 72, 5-Methyl-N-[(3-methyl-1-phenyl-1H-pyrazol-4-yl)methyl]-7-(oxolan-3-yl)-[1,2,4]triazolo[1,5-a]pyrimidin-2-amine]	>7

Same assay, conditions: 200 nM FAM-cAMP substrate, 11-point half-log dose-response, read-out: PDE2 (PIC50)

SMILES	IC50
Cc1cc(C2CCOCC2)n2nc(NCc3cccc(C#N)c3)nc2n1 [Example 86, 3-({[5-Methyl-7-(oxan-4-yl)-[1,2,4]triazolo[1,5-a]pyrimidin-2-yl]amino}methyl)benzonitrile]	100 to 1000 nM
Cc1cc(C(C)C)n2nc(NCc3ccccc3)nc2n1 [Example 8, N-Benzyl-7-isopropyl-5-methyl-[1,2,4]triazolo[1,5-a]pyrimidin-2-amine]	1000 to 10000 nM
COc1ccc(CNc2nc3nc(C)cc(C4CCOC4)n3n2)cc1 (stereo not drawn) [Example 44, N-[(4-Methoxyphenyl)methyl]-5-methyl-7-(oxolan-3-yl)-[1,2,4]triazolo[1,5-a]pyrimidin-2-amine]	100 to 1000 nM
Cc1cc(C(C)C)n2nc(NCc3ccc4c(c3)CCC4)nc2n1 [Example 6, N-((2,3-Dihydro-1H-inden-5-yl)methyl)-7-isopropyl-5-methyl-[1,2,4]triazolo[1,5-a]pyrimidin-2-amine]	100 to 1000 nM
COc1ccc(CNc2nc3nc(C)cc(C4CCC(F)(F)CC4)n3n2)cc1 [Example 22, 7-(4,4-Difluorocyclohexyl)-N-[(4-methoxyphenyl)methyl]-5-methyl-[1,2,4]triazolo[1,5-a]pyrimidin-2-amine]	100 to 1000 nM
COc1ccc(CNc2nc3nc(C)cc(C4(C)CC4)n3n2)cc1 [Example 75, N-[(4-Methoxyphenyl)methyl]-5-methyl-7-(1-methylcyclopropyl)-[1,2,4]triazolo[1,5-a]pyrimidin-2-amine]	100 to 1000 nM
